Experimental data taken from US10125100B2, “Kinase inhibitors” (Respivert Limited, priority 2014, dated 2018).
pIC50: −log10 of the molar value.

Key:
c-Src = c-Src (Homo sapiens (Human), UniProt P12931); experiment: c-Src enzyme inhibition, Z-LYTE FRET; assay type: biochemical
Protocol: (§1) The enzyme inhibitory activities of compounds disclosed herein are determined by FRET using synthetic peptides labelled with both donor and acceptor fluorophores (Z-LYTE, Invitrogen Ltd., Paisley, UK).
The inhibitory activities of compounds of the invention against c-Src and Syk enzymes (Invitrogen), are evaluated in a similar fashion to that described hereinabove. The relevant enzyme (3000 ng/mL or 2000 ng/mL respectively, 2.5 μL) is incubated with the test compound (either 1 μg/mL, 0.1 μg/mL, 0.01 μg/mL, or 0.001 μg/mL, 2.5 μL each) for 2 hr at RT. The FRET peptides (8 μM, 2.5 μL), and appropriate ATP solutions (2.5 μL, 800 μM for c-Src, and 60 μM ATP for Syk) are then added to the enzymes/compound mixtures and the mixture incubated for 1 hr. Development reagent (protease, 5 μL) is added for 1 hr prior to detection in a fluorescence microplate reader (Varioskan® Flash, ThermoFisher Scientific).
(§2) In all cases, the site-specific protease cleaves non-phosphorylated peptide only and eliminates the FRET signal. Phosphorylation levels of each reaction are calculated using the ratio of coumarin emission (donor) over fluorescein emission (acceptor), for which high ratios indicate high phosphorylation and low ratios indicate low phosphorylation levels.

Syk = Syk (Homo sapiens (Human), UniProt P43405); experiment: Syk enzyme inhibition, Z-LYTE FRET; assay type: biochemical
Protocol: as §1
The relevant enzyme (3000 ng/mL or 2000 ng/mL respectively, 2.5 μL) is incubated with the test compound (either 1 μg/mL, 0.1 μg/mL, 0.01 μg/mL, or 0.001 μg/mL, 2.5 μL each) for 2 hr at RT. The FRET peptides (8 μM, 2.5 μL), and appropriate ATP solutions (2.5 μL, 800 μM for c-Src, and 60 μM ATP for Syk) are then added to the enzymes/compound mixtures and the mixture incubated for 1 hr. Development reagent (protease, 5 μL) is added for 1 hr prior to detection in a fluorescence microplate reader (Varioskan® Flash, ThermoFisher Scientific).
as §2

Jurkat cells = experiment: (r) Cell cytotoxicity assay; assay type: cell-based, human; details: 24 hours
How it was run: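 Viability read by flow cytometry as the fraction of propidium iodide-negative cells (7.5 μg/mL PI, 15 min), relative to 1.0% DMSO control. Beforehand, 1×10^5 Jurkat cells in RPMI/10% FBS were treated 24 h at 37° C., 5% CO2 with test compound at final 20, 5 or 1 μg/mL.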

Chain of c-Src (P12931 whole entry, looked up): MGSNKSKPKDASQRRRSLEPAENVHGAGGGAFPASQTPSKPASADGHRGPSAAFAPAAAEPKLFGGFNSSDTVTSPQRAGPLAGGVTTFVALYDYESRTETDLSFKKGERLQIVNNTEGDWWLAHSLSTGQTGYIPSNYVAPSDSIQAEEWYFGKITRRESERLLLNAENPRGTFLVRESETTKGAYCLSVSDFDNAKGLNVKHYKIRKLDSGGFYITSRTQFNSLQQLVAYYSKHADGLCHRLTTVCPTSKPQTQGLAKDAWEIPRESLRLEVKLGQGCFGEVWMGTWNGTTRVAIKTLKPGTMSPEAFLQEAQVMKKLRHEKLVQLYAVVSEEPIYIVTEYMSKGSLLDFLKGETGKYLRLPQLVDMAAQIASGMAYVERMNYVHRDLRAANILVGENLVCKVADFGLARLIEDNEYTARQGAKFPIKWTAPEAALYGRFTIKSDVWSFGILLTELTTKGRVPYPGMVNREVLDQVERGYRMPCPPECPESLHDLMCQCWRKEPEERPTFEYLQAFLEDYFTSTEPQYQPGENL

COc1cc(Nc2cc(Oc3ccc(NC(=O)Nc4cc(C(C)(C)C)cc(NS(C)(=O)=O)c4OC)c4ccccc34)ccn2)ccc1S(=O)(=O)N(C)CCN1CCOCC1 [17(o), 1-[5-tert-butyl-3-(methanesulfonamido)-2-methoxy-phenyl]-3-[4-[[2-[3-methoxy-4-[methyl(2-morpholinoethyl)sulfamoyl]anilino]-4-pyridyl]oxy]-1-naphthyl]urea]
pIC50 (c-Src): 6.63 | pIC50 (Syk): 6.02

COc1c(NC(=O)Nc2ccc(Oc3ccnc(Nc4ccc(C(=O)NCCN5CCOCC5)c(N(C)C)c4)c3)c3ccccc23)cc(C(C)(C)C)cc1NS(C)(=O)=O [Example 21]
pIC50 (c-Src): 7.80 | pIC50 (Syk): 7.82 | % Viability at 1 μg/mL (Jurkat cells): 101.2% | % Viability at 5 μg/mL (Jurkat cells): 82.4% | % Viability at 20 μg/mL (Jurkat cells): 77.1%

COc1cc(Nc2cc(Oc3ccc(NC(=O)Nc4cc(C(C)(C)C)cc(NS(C)(=O)=O)c4OC)c4ccccc34)ccn2)ccc1S(=O)(=O)CCCN1CCOCC1 [Example 20, N-(5-(tert-Butyl)-2-methoxy-3-(3-(4-((2-((3-methoxy-4-((3-morpholinopropyl)sulfonyl)phenyl)-amino)pyridin-4-yl)oxy)naphthalen-1-yl)ureido)phenyl)methanesulfonamide]
pIC50 (c-Src): 7.11 | pIC50 (Syk): 6.84 | % Viability at 1 μg/mL (Jurkat cells): 104.0% | % Viability at 5 μg/mL (Jurkat cells): 99.3% | % Viability at 20 μg/mL (Jurkat cells): 91.8%

COc1cc(Nc2cc(Oc3ccc(NC(=O)Nc4cc(C(C)(C)C)cc(NS(C)(=O)=O)c4OC)c4ccccc34)ccn2)ccc1S(=O)(=O)N(C)CCCN1CCOCC1 [Example 13, 1-[5-tert-Butyl-3-(methanesulfonamido)-2-methoxy-phenyl]-3-[4-[[2-[3-methoxy-4-[methyl(3-morpholinopropyl)sulfamoyl]anilino]-4-pyridyl]oxy]-1-naphthyl]urea]
pIC50 (c-Src): 6.82 | pIC50 (Syk): 6.09

COc1cc(Nc2cc(Oc3ccc(NC(=O)Nc4cc(C(C)(C)C)cc(NS(C)(=O)=O)c4OC)c4ccccc34)ccn2)ccc1S(=O)(=O)N(C)CCCN1CCN(C)CC1 [Example 25, 4-((4-((4-(3-(5-(tert-Butyl)-2-methoxy-3-(methylsulfonamido)phenyl)ureido)naphthalen-1-yl)oxy)pyridin-2-yl)amino)-2-methoxy-N-methyl-N-(3-(4-methylpiperazin-1-yl)propyl)benzenesulfonamide]
% Viability at 1 μg/mL (Jurkat cells): 91.8% | % Viability at 5 μg/mL (Jurkat cells): 78.9% | % Viability at 20 μg/mL (Jurkat cells): 0.7%

COc1cc(Nc2cc(Oc3ccc(NC(=O)Nc4cc(C(C)(C)C)cc(NS(C)(=O)=O)c4OC)c4ccccc34)ccn2)ccc1C(=O)NCC(=O)O [17(ar), 2-(4-((4-((4-(3-(5-(tert-Butyl)-2-methoxy-3-(methylsulfonamido)phenyl)ureido)naphthalen-1-yl)oxy)pyridin-2-yl)amino)-2-methoxybenzamido)acetic acid]
% Viability at 1 μg/mL (Jurkat cells): 96.1% | % Viability at 5 μg/mL (Jurkat cells): 96.2% | % Viability at 20 μg/mL (Jurkat cells): 95.3%

COc1cc(Nc2cc(Oc3ccc(NC(=O)Nc4cc(C(C)(C)C)cc(NS(C)(=O)=O)c4OC)c4ccccc34)ccn2)ccc1-c1nn[nH]n1 [Example 24, N-(5-(tert-Butyl)-2-methoxy-3-(3-(4-((2-((3-methoxy-4-(2H-tetrazol-5-yl)phenyl)amino)pyridin-4-yl)oxy)naphthalen-1-yl)ureido)phenyl)methanesulfonamide]
% Viability at 1 μg/mL (Jurkat cells): 104.3% | % Viability at 5 μg/mL (Jurkat cells): 92.4% | % Viability at 20 μg/mL (Jurkat cells): 9.7%
